Measurements: ChEMBL document CHEMBL1201862, “PubChem BioAssay data set” (2004)
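A five-concentration, 48-hour dose response in 96-well plates underlies each endpoint, interpolated linearly between surrounding concentrations. Here, GI50 denotes the concentration required for 50% inhibition of growth.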 The source made the active and inactive calls. Cut-off read from the data, not from the text of the source: active = GI50 up to about 1.1 µM and inactive = higher.

Key:
Experiment in all cases: inhibition of tumour cell growth, NCI panel, 48 h
UO-31 = system: UO-31
CAKI-1 = system: CAKI-1
SNB-19 = system: SNB-19
SW-620 = system: SW-620
KM12 = system: KM12
M14 = system: M14
SK-OV-3 = system: SK-OV-3
A549 = system: A549
UACC-62 = system: UACC-62
NCI-H226 = system: NCI-H226
PC-3 = system: PC-3
Malme-3M = system: Malme-3M
COLO 205 = system: COLO 205
MDA-MB-435 = system: MDA-MB-435
Hs-578T = system: Hs-578T
IGROV-1 = system: IGROV-1
TK-10 = system: TK-10
MDA-N = system: MDA-N
HCT-116 = system: HCT-116
ACHN = system: ACHN

SMILES | GI50 (UO-31) | GI50 (CAKI-1) | GI50 (SNB-19) | GI50 (SW-620) | GI50 (KM12) | GI50 (M14) | GI50 (SK-OV-3) | GI50 (A549) | GI50 (UACC-62) | GI50 (NCI-H226) | GI50 (PC-3) | GI50 (Malme-3M) | GI50 (COLO 205) | GI50 (MDA-MB-435) | GI50 (Hs-578T) | GI50 (IGROV-1) | GI50 (TK-10) | GI50 (MDA-N) | GI50 (HCT-116) | GI50 (ACHN)
c1ccc2c(c1)Oc1cccc3cccc-2c13 | > 100 µM (inactive) | > 100 µM (inactive) | > 100 µM (inactive) | > 100 µM (inactive) | > 100 µM (inactive) | > 100 µM (inactive) | > 100 µM (inactive) | > 100 µM (inactive) | > 100 µM (inactive) | > 100 µM (inactive) | > 100 µM (inactive) | > 100 µM (inactive) | > 100 µM (inactive) | > 100 µM (inactive) | > 100 µM (inactive) | > 100 µM (inactive) | > 100 µM (inactive) | > 100 µM (inactive) | > 100 µM (inactive) | > 100 µM (inactive)
COc1ccc(N2C(=O)C3c4[nH]c5ccc(OCc6ccccc6)cc5c4C4CCC(C(C)C)CC4C3C2=O)cc1 (stereo not given) | > 57.1 µM (inactive) | > 30.7 µM (inactive) | 9.33 µM (inactive) | > 100 µM (inactive) | > 100 µM (inactive) | > 48.6 µM (inactive) | 17.7 µM (inactive) | 50.6 µM (inactive) | 29 µM (inactive) | 14.2 µM (inactive) | > 89.9 µM (inactive) | 21 µM (inactive) | > 100 µM (inactive) | > 100 µM (inactive) | 2.29 µM (inactive) | > 39.6 µM (inactive) | > 30.3 µM (inactive) | > 100 µM (inactive) | > 45.8 µM (inactive) | 10.8 µM (inactive)
CN(C)c1ccc(/C=C(\C#N)c2nc(-c3cc4ccccc4oc3=O)cs2)cc1 | > 50 µM (inactive) | > 50 µM (inactive) | 13.2 µM (inactive) | > 50 µM (inactive) | > 50 µM (inactive) | 15.7 µM (inactive) | 19.9 µM (inactive) | > 50 µM (inactive) | 8.61 µM (inactive) | 13.6 µM (inactive) | > 50 µM (inactive) | 4.65 µM (inactive) | > 50 µM (inactive) | > 50 µM (inactive) | 13.7 µM (inactive) | 15.4 µM (inactive) | 8.95 µM (inactive) | > 50 µM (inactive) | 20 µM (inactive) | 13.3 µM (inactive)
OCCCCn1cc(Cn2ncc3c(O)ncnc32)nn1 | > 100 µM (inactive) | > 100 µM (inactive) | > 100 µM (inactive) | > 100 µM (inactive) | > 100 µM (inactive) | > 100 µM (inactive) | > 100 µM (inactive) | > 100 µM (inactive) | > 100 µM (inactive) | > 100 µM (inactive) | > 100 µM (inactive) | > 100 µM (inactive) | > 100 µM (inactive) | > 100 µM (inactive) | > 100 µM (inactive) | > 100 µM (inactive) | > 100 µM (inactive) | > 100 µM (inactive) | > 100 µM (inactive) | > 100 µM (inactive)
COC(=O)C1CC2C=CC1N(C(=O)OCc1ccccc1)C2 (stereo not given) | > 100 µM (inactive) | > 100 µM (inactive) | > 100 µM (inactive) | > 100 µM (inactive) | > 100 µM (inactive) | > 100 µM (inactive) | > 100 µM (inactive) | > 100 µM (inactive) | > 100 µM (inactive) | > 100 µM (inactive) | > 100 µM (inactive) | 26 µM (inactive) | > 100 µM (inactive) | > 100 µM (inactive) | > 100 µM (inactive) | > 100 µM (inactive) | > 100 µM (inactive) | > 100 µM (inactive) | > 100 µM (inactive) | > 100 µM (inactive)
CC(=O)/C(=C(/Br)I)c1ccccc1 | 12.4 µM (inactive) | 3.03 µM (inactive) | 17.3 µM (inactive) | 3.15 µM (inactive) | 14.8 µM (inactive) | 6.87 µM (inactive) | 28.6 µM (inactive) | 20 µM (inactive) | 12.8 µM (inactive) | 7.45 µM (inactive) | 16.8 µM (inactive) | 10.9 µM (inactive) | 13.6 µM (inactive) | 3.01 µM (inactive) | 30.7 µM (inactive) | 10.9 µM (inactive) | 21 µM (inactive) | 3.45 µM (inactive) | 4.52 µM (inactive) | 13 µM (inactive)
CC1=NN(C(=O)c2ccccc2O)C(c2ccccc2Cl)C1C(=O)Nc1ccccc1 (stereo not given) | < 0.0226 µM (active) | 0.159 µM (active) | 0.0306 µM (active) | 0.388 µM (active) | 0.107 µM (active) | 0.054 µM (active) | 10.9 µM (inactive) | < 0.0158 µM (active) | < 0.0197 µM (active) | 0.0614 µM (active) | 1.75 µM (inactive) | 0.0565 µM (active) | 5.26 µM (inactive) | < 0.0195 µM (active) | < 0.01 µM (active) | < 0.028 µM (active) | 3.1 µM (inactive) | < 0.0205 µM (active) | < 0.0196 µM (active) | 0.0238 µM (active)
COC1CC(NC(=O)C(F)(F)F)C(OC(C)=O)C(C)O1 (stereo not given) | > 100 µM (inactive) | > 100 µM (inactive) | > 100 µM (inactive) | > 100 µM (inactive) | > 100 µM (inactive) | > 100 µM (inactive) | > 100 µM (inactive) | > 100 µM (inactive) | > 100 µM (inactive) | 66.5 µM (inactive) | > 100 µM (inactive) | > 100 µM (inactive) | > 100 µM (inactive) | > 100 µM (inactive) | > 100 µM (inactive) | > 100 µM (inactive) | > 100 µM (inactive) | > 100 µM (inactive) | > 100 µM (inactive) | > 100 µM (inactive)
O=c1cc(/N=N\c2ccc(Br)cc2)[nH]c(=S)[nH]1 | 55.8 µM (inactive) | 10.4 µM (inactive) | 61 µM (inactive) | 27.2 µM (inactive) | 45.1 µM (inactive) | 15.7 µM (inactive) | > 100 µM (inactive) | > 100 µM (inactive) | 78.3 µM (inactive) | > 100 µM (inactive) | 61.1 µM (inactive) | 16.4 µM (inactive) | 21.9 µM (inactive) | 19.7 µM (inactive) | 32.7 µM (inactive) | 53.1 µM (inactive) | 17.3 µM (inactive) | 49.5 µM (inactive) | 18.2 µM (inactive) | 15.9 µM (inactive)
CCSCC(=O)N1CCc2c([nH]c3ccccc23)C1=O | > 100 µM (inactive) | > 100 µM (inactive) | > 100 µM (inactive) | > 100 µM (inactive) | > 100 µM (inactive) | > 100 µM (inactive) | > 100 µM (inactive) | > 100 µM (inactive) | 97.5 µM (inactive) | > 100 µM (inactive) | > 100 µM (inactive) | > 100 µM (inactive) | > 100 µM (inactive) | > 100 µM (inactive) | 23.2 µM (inactive) | > 100 µM (inactive) | > 100 µM (inactive) | > 100 µM (inactive) | > 100 µM (inactive) | > 100 µM (inactive)
COC1(OC)C2(Cl)CCC1(Cl)C(OC(C)=O)C2 (stereo not given) | > 100 µM (inactive) | > 100 µM (inactive) | > 100 µM (inactive) | > 100 µM (inactive) | > 100 µM (inactive) | > 100 µM (inactive) | > 100 µM (inactive) | > 100 µM (inactive) | > 90.2 µM (inactive) | > 100 µM (inactive) | > 100 µM (inactive) | > 100 µM (inactive) | > 100 µM (inactive) | > 100 µM (inactive) | > 100 µM (inactive) | > 100 µM (inactive) | > 100 µM (inactive) | > 100 µM (inactive) | > 100 µM (inactive) | > 100 µM (inactive)
CC(=C(C(=O)O)C(=O)O)c1cc(-c2cccs2)cc(-c2ccc(Cl)cc2)c1O | 11.9 µM (inactive) | 17.4 µM (inactive) | 15.7 µM (inactive) | 18.7 µM (inactive) | 9.04 µM (inactive) | 17.7 µM (inactive) | 33.7 µM (inactive) | 20.7 µM (inactive) | 15.3 µM (inactive) | 21.2 µM (inactive) | 13.6 µM (inactive) | 21.6 µM (inactive) | 22.4 µM (inactive) | 15.6 µM (inactive) | > 42.7 µM (inactive) | 15.2 µM (inactive) | 16.2 µM (inactive) | 16.3 µM (inactive) | 13.8 µM (inactive) | 15.8 µM (inactive)
CC1=CC2=C(OCO1)C(=O)c1ccccc1C2=O | 7.94 µM (inactive) | 8.39 µM (inactive) | 9.59 µM (inactive) | 8.09 µM (inactive) | 6.71 µM (inactive) | 4.73 µM (inactive) | 13.3 µM (inactive) | 6.08 µM (inactive) | 5.11 µM (inactive) | 10.4 µM (inactive) | 3.18 µM (inactive) | 2.51 µM (inactive) | 5.86 µM (inactive) | 1.46 µM (inactive) | 1.67 µM (inactive) | 11 µM (inactive) | 28.1 µM (inactive) | 0.408 µM (active) | 7.16 µM (inactive) | 3.76 µM (inactive)
COC(C)(C)C(O)C(O)C[C@H](C)C1CC=C2C1(C)CCC1[C@@]3(C)CCC(OC(C)=O)C(C)(C)C3CC(OC3OC(COC(C)=O)C(O)C(O)C3O)[C@@]21C (stereo not given in full) | 0.287 µM (active) | > 10 µM (inactive) | 5.01 µM (inactive) | 5.38 µM (inactive) | 2.92 µM (inactive) | 3.15 µM (inactive) | > 10 µM (inactive) | 4.13 µM (inactive) | 2.76 µM (inactive) | 5.21 µM (inactive) | 3.48 µM (inactive) | 5.55 µM (inactive) | 1.99 µM (inactive) | 3.24 µM (inactive) | 4.37 µM (inactive) | 2.78 µM (inactive) | 4.53 µM (inactive) | 3.01 µM (inactive) | 3 µM (inactive) | 3.87 µM (inactive)
